One may read the IC50 as the midpoint of a concentration-inhibition curve.

Each structure is given as a SMILES string.

This test addresses T1, human TLR8 (Homo sapiens, UniProt Q9NR97).
T1 sequence (Q9NR97 27-1041): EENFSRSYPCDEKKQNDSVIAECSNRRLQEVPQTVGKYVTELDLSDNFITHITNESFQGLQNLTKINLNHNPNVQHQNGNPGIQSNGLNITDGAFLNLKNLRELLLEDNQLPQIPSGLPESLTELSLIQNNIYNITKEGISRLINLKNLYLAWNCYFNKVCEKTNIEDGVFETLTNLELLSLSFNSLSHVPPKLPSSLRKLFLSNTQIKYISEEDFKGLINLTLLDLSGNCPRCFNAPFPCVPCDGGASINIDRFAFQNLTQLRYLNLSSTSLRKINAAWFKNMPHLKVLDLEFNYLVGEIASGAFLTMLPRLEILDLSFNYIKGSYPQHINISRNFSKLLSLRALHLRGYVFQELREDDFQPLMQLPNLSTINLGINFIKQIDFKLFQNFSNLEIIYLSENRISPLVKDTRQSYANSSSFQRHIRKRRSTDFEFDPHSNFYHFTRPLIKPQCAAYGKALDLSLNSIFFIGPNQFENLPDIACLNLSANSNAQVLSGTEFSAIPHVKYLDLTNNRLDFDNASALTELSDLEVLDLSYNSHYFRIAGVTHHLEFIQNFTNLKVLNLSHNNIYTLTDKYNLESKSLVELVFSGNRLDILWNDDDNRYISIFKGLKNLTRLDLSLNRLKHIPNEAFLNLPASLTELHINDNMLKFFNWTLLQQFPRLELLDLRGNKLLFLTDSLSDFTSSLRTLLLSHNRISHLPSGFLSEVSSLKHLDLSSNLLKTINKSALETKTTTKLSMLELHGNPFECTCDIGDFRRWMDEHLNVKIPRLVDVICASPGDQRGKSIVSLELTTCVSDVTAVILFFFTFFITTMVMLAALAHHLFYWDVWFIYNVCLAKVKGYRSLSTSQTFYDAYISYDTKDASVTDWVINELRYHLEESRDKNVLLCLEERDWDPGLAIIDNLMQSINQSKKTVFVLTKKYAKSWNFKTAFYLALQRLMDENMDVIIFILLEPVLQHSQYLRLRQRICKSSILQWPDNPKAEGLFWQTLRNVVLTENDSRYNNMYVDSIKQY
Kind of test: HEK293-Blue-hTLR-8 cells assay (SEAP reporter, R848 stimulation). The conditions noted are these: HEK293-Blue-hTLR8 cells, R848 ligand, 20 hrs incubation. The class given is cell-based. The text has this: A stable HEK293-Blue-hTLR-8 cell line was purchased from InvivoGen (Cat. #: hkb-htlr8, San Diego, Calif., USA). These cells were originally designed for studying the stimulation of human TLR8 by monitoring the activation of NF-κB. A SEAP (secreted embryonic alkaline phosphatase) reporter gene was placed under the control of the IFN-β minimal promoter fused to five NF-κB and AP-1-binding sites. The SEAP was induced by activating NF-κB and AP-1 via stimulating HEK-Blue hTLR8 cells with TLR8 ligands. Therefore the reporter expression was declined by TLR8 antagonist under the stimulation of a ligand, such as R848, for incubation of 20 hrs. The cell culture supernatant SEAP reporter activity was determined using QUANTI-Blue™ kit (Cat. #: rep-qb1, Invivogen, San Diego, Ca, USA) at a wavelength of 640 nm, a detection medium that turns purple or blue in the presence of alkaline phosphatase.
HEK293-Blue-hTLR8 cells were incubated at a density of 250,000˜450,000 cells/mL in a volume of 170 μL in a 96-well plate in Dulbecco's Modified Eagle's medium (DMEM) containing 4.5 g/L glucose, 50 U/mL penicillin, […], […], 2 mM L-glutamine, 10% (v/v) heat-inactivated fetal bovine serum with addition of 20 μL test compound in a serial dilution in the presence of final DMSO at 1% and 10 μL of 60 uM R848 in above DMEM, perform incubation under 37° C. in a CO2 incubator for 20 hrs. Then 20 μL of the supernatant from each well was incubated with 180 μL Quanti-blue substrate solution at 37° C. for 2 hrs and the absorbance was read at 620˜655 nm using a spectrophotometer. The signalling pathway that TLR8 activation leads to downstream NF-κB activation has been widely accepted, and therefore similar reporter assay was modified for evaluating TLR8 antagonist.
Compound `C[C@@H]1CN(c2ccc(C#N)n3nccc23)C[C@H](CN2CCOC3(CCNCC3)C2)O1` [Example 71, 4-[(2R,6S)-2-methyl-6-(1-oxa-4,9-diazaspiro[5.5]undecan-4-ylmethyl)morpholin-4-yl]pyrazolo[1,5-a]pyridine-7-carbonitrile] came in with an IC50 of 55 nM.

`C[C@@H]1CN(c2ccc(C#N)n3nccc23)C[C@H](CN2CCC3(CCCCN3)C2)O1` (stereo partly drawn) [Example 42, 4-[(2S,6R)-2-(2,6-diazaspiro[4.5]decan-2-ylmethyl)-6-methyl-morpholin-4-yl]pyrazolo[1,5-a]pyridine-7-carbonitrile] came in with an IC50 of 65 nM.

Turning to `C[C@@H]1CN(c2ccc(C#N)n3nccc23)C[C@H](CN2CCC3NCC3C2)O1` (stereo partly drawn) [Example 70, 4-[(2S,6R)-2-(3,7-diazabicyclo[4.2.0]octan-3-ylmethyl)-6-methyl-morpholin-4-yl]pyrazolo[1,5-a]pyridine-7-carbonitrile], 120 nM corresponded to half-maximal inhibition (IC50).

On to `C[C@@H]1CN(c2ccc(C#N)n3nccc23)C[C@H](CN2CCC3(CCNC3)C2=O)O1` (stereo partly drawn) [Example 21, 4-[(2R,6R)-2-methyl-6-[(1-oxo-2,7-diazaspiro[4.4]nonan-2-yl)methyl]morpholin-4-yl]pyrazolo[1,5-a]pyridine-7-carbonitrile], for which inhibition was half-maximal at 39 nM (IC50).

With `C[C@@H]1CN(c2ccc(C#N)n3ncc(F)c23)C[C@H](CN2CCCC3(CCNCC3)C2)O1` [Example 67, 4-[(2S,6R)-2-(2,9-diazaspiro[5.5]undecan-2-ylmethyl)-6-methyl-morpholin-4-yl]-3-fluoro-pyrazolo[1,5-a]pyridine-7-carbonitrile], the IC50 is 38 nM.

As for `C[C@@H]1CN(c2ccc(C#N)n3nccc23)C[C@H](CN2CCC(N3CCCCC3)CC2)O1` [Example 16, 4-[(2R,6S)-2-methyl-6-[[4-(1-piperidyl)-1-piperidyl]methyl]morpholin-4-yl]pyrazolo[1,5-a]pyridine-7-carbonitrile], the IC50 turned out to be 19 nM.

In turn, `C[C@@H]1CN(c2ccc(C#N)n3nccc23)C[C@H](CN2CCC(N)(c3ccccc3)CC2)O1` [Example 73, 4-[(2S,6R)-2-[(4-amino-4-phenyl-1-piperidyl)methyl]-6-methyl-morpholin-4-yl]pyrazolo[1,5-a]pyridine-7-carbonitrile] yielded an IC50 of 47 nM.

For `C[C@@H]1CN(c2ccc(C#N)n3nccc23)C[C@H](CN2CC3(CCNC3)CC2=O)O1` (stereo partly drawn) [Example 20, 4-[(2R,6R)-2-methyl-6-[(3-oxo-2,7-diazaspiro[4.4]nonan-2-yl)methyl]morpholin-4-yl]pyrazolo[1,5-a]pyridine-7-carbonitrile], the IC50 turned out to be 610 nM.

The compound `C[C@@H]1CN(c2ccc(C#N)n3nccc23)C[C@H](CN2CCC(N3CCCCCC3)CC2)O1` [Example 4, 4-[(2S,6R)-2-[[4-(azepan-1-yl)-1-piperidyl]methyl]-6-methyl-morpholin-4-yl]pyrazolo[1,5-a]pyridine-7-carbonitrile] displayed an IC50 of 26 nM.

`C[C@@H]1CN(c2ccc(C#N)n3nccc23)C[C@H](CN2CCCC3NCCCC32)O1` (stereo partly drawn) [Example 64, 4-[(2S,6R)-2-(3,4,4a,5,6,7,8,8a-octahydro-2H-1,5-naphthyridin-1-ylmethyl)-6-methyl-morpholin-4-yl]pyrazolo[1,5-a]pyridine-7-carbonitrile]: half-maximal inhibition (IC50) was put at 120 nM.

In turn, `C[C@@H]1CN(c2ccc(C#N)n3nccc23)C[C@H](CN2CCN(C3CCNCC3)CC2Cc2ccccc2)O1` (stereo partly drawn) [Example 77, 4-[(2S,6R)-2-[[2-benzyl-4-(4-piperidyl)piperazin-1-yl]methyl]-6-methyl-morpholin-4-yl]pyrazolo[1,5-a]pyridine-7-carbonitrile] gave an IC50 of 130 nM.

In turn, `C[C@@H]1CN(c2ccc(C#N)n3nccc23)C[C@H](CN2CCC(N3CCCC3)CC2)O1` [Example 54, 4-[(2R,6S)-2-methyl-6-[(4-pyrrolidin-1-yl-1-piperidyl)methyl]morpholin-4-yl]pyrazolo[1,5-a]pyridine-7-carbonitrile] came in with a concentration for half-maximal inhibition (IC50) of 42 nM.

`C[C@@H]1CN(c2ccc(C#N)n3nccc23)C[C@H](CN2CCC3NCCC3C2)O1` (stereo partly drawn) [Example 41, 4-[(2S,6R)-2-(1,2,3,3a,4,6,7,7a-octahydropyrrolo[3,2-c]pyridin-5-ylmethyl)-6-methyl-morpholin-4-yl]pyrazolo[1,5-a]pyridine-7-carbonitrile] came in with an IC50 of 29 nM.

The compound `C[C@@H]1CN(c2ccc(C#N)n3nccc23)C[C@H](CN2CCNCC2Cc2ccccc2)O1` (stereo partly drawn) [Example 59, 4-[(2S,6R)-2-[(2-benzylpiperazin-1-yl)methyl]-6-methyl-morpholin-4-yl]pyrazolo[1,5-a]pyridine-7-carbonitrile] registered an IC50 of 6 nM.

`C[C@@H]1CN(c2ccc(C#N)n3nccc23)C[C@H](CN2CCNC3(CC3)C2)O1` [Example 40, 4-[(2S,6R)-2-(4,7-diazaspiro[2.5]octan-7-ylmethyl)-6-methyl-morpholin-4-yl]pyrazolo[1,5-a]pyridine-7-carbonitrile]: the IC50 worked out at 140 nM.

As for `C[C@@H]1CN(c2ccc(C#N)n3nccc23)C[C@H](CN2CC3CCC(C2)N3)O1` [Example 31, 4-[(2S,6R)-2-(3,8-diazabicyclo[3.2.1]octan-3-ylmethyl)-6-methyl-morpholin-4-yl]pyrazolo[1,5-a]pyridine-7-carbonitrile], the IC50 was 97 nM.

The compound `C[C@@H]1CN(c2ccc(C#N)n3nccc23)C[C@H](CN2CCN(C)CC2)O1` [Example 15, 4-[(2R,6S)-2-methyl-6-[(4-methylpiperazin-1-yl)methyl]morpholin-4-yl]pyrazolo[1,5-a]pyridine-7-carbonitrile] had an IC50 of 180 nM.

As for `C[C@@H]1CN(c2ccc(C#N)n3nccc23)C[C@H](CN2CCN(C(=O)CN)CC2)O1` [Example 14, 4-[(2S,6R)-2-[[4-(2-aminoacetyl)piperazin-1-yl]methyl]-6-methyl-morpholin-4-yl]pyrazolo[1,5-a]pyridine-7-carbonitrile], the IC50 stood at 380 nM.

With `C[C@@H]1CN(c2ccc(C#N)n3nccc23)C[C@H](CN2C3CCCC2CC(N)C3)O1` (stereo partly drawn) [Example 65, Endo-4-[(2S,6R)-2-[(3-amino-9-azabicyclo[3.3.1]nonan-9-yl)methyl]-6-methyl-morpholin-4-yl]pyrazolo[1,5-a]pyridine-7-carbonitrile], the IC50 was 64 nM.

`CC1CC(N)CCN1C[C@H]1CN(c2ccc(C#N)n3nccc23)C[C@@H](C)O1` (stereo partly drawn) [Example 51, 4-[(2S,6R)-2-[(4-amino-2-methyl-1-piperidyl)methyl]-6-methyl-morpholin-4-yl]pyrazolo[1,5-a]pyridine-7-carbonitrile]: the IC50 was determined as 40 nM.

Regarding `C[C@@H]1CN(c2ccc(C#N)n3nccc23)C[C@H](CN2CCC3(CCCCN3)CC2)O1` [Example 47, 4-[(2S,6R)-2-(1,9-diazaspiro[5.5]undecan-9-ylmethyl)-6-methyl-morpholin-4-yl]pyrazolo[1,5-a]pyridine-7-carbonitrile], the IC50 was determined as 31 nM.

The compound `C[C@@H]1CN(c2ccc(C#N)n3nccc23)C[C@H](CN2CCNCC2)O1` [Example 5, 4-[(2R,6S)-2-methyl-6-(piperazin-1-ylmethyl)morpholin-4-yl]pyrazolo[1,5-a]pyridine-7-carbonitrile] had an IC50 of 78 nM.

Regarding `C[C@@H]1CN(c2ccc(C#N)n3nccc23)C[C@H](CN2CC3(CC(N)C3)C2)O1` [Example 11, 4-[(2S,6R)-2-[(6-amino-2-azaspiro[3.3]heptan-2-yl)methyl]-6-methyl-morpholin-4-yl]pyrazolo[1,5-a]pyridine-7-carbonitrile], half-maximal inhibition (IC50) required 930 nM.
